Among the test systems are A549; CAKI-1; EKVX; HCT-116; HT-29; IGROV-1; K562; LOX IMVI; M14; MOLT-4; NCI-H226; OVCAR-3; SK-MEL-2; OVCAR-5; SNB-19.
Test in all cases: growth of human tumour cells (NCI), 48 h

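Test compounds were applied to cells in 96-well plates for 48 hours at 5 doses. Abbreviation: GI50, concentration required for 50% inhibition of growth.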 The source made the active and inactive calls. No stated cut-off is given here; in the data, active = GI50 up to about 1.1 µM and inactive = higher.

In the case of `COC(=O)C(=O)C(C#N)c1ccc(Cl)c(Cl)c1` (stereo not given), the GI50 is > 100 µM (inactive) in the assay with A549; > 100 µM (inactive) in the assay on CAKI-1; 64.3 µM (inactive) in the assay on EKVX; > 100 µM (inactive) with HCT-116; > 100 µM (inactive) in the assay on HT-29; > 100 µM (inactive) in the assay with IGROV-1. In addition, the GI50 in the assay with K562, with LOX IMVI, in the assay on M14, in the assay on MOLT-4, with NCI-H226 and with OVCAR-3 was > 100 µM (inactive) throughout. Also, the GI50 in the assay with SK-MEL-2 is > 100 µM (inactive).
As for `OC1(c2ccccc2)OC(C#Cc2ccccc2)(c2ccccc2)c2ccccc21` (stereo not given), the GI50 with A549 was 3.86 µM (inactive); in the assay with CAKI-1, 3.85 µM (inactive); in the assay on EKVX it was 3.19 µM (inactive); in the assay on HCT-116, 1.7 µM (inactive); with HT-29, 2.02 µM (inactive); in the assay on IGROV-1, 11 µM (inactive). The GI50 is 3.55 µM (inactive) in the assay on K562; 2.91 µM (inactive) in the assay with LOX IMVI; 2.21 µM (inactive) with M14; 2.08 µM (inactive) in the assay on MOLT-4; 2.62 µM (inactive) in the assay on NCI-H226; 2.31 µM (inactive) in the assay with OVCAR-3. Besides, the GI50 is 2.79 µM (inactive) with OVCAR-5 and 13.2 µM (inactive) in the assay on SNB-19.
On to `CCOC(=O)c1c2cccccc2n2c(=O)cc(C)nc12`, for which the GI50 in the assay on A549, in the assay with CAKI-1, with EKVX, in the assay with HT-29, in the assay on IGROV-1 and in the assay on K562 was > 100 µM (inactive) in each case. The GI50 in the assay with LOX IMVI, with M14, with MOLT-4, in the assay on NCI-H226, in the assay on OVCAR-3 and in the assay on OVCAR-5 was > 100 µM (inactive) in each case. For the same compound, the GI50 in the assay with SK-MEL-2 and in the assay with SNB-19 was > 100 µM (inactive) each time.
As to `Nc1nc(N)c(N=O)c(Nc2ccc(I)cc2)n1`, the GI50 in the assay with A549 is 65.8 µM (inactive); in the assay with EKVX it was > 100 µM (inactive); with HCT-116, 14.3 µM (inactive); in the assay on IGROV-1 it was 3.94 µM (inactive); with K562, 14.1 µM (inactive); in the assay with LOX IMVI, 9.12 µM (inactive). Also, the GI50 in the assay on M14 was 12.4 µM (inactive); in the assay on MOLT-4 it was 3.98 µM (inactive); with OVCAR-3, 13.2 µM (inactive); in the assay on OVCAR-5, 19.2 µM (inactive); in the assay on SK-MEL-2, 15.3 µM (inactive); in the assay on SNB-19, 30.1 µM (inactive).
Consider `Cc1ccc(NC(=O)CC2SC(Nc3cccc(Cl)c3C)=NC2=O)cc1` (stereo not given), for which the GI50 with A549 was 51.1 µM (inactive); in the assay with CAKI-1, 71.4 µM (inactive); in the assay with EKVX it was 70 µM (inactive); in the assay on HT-29, > 100 µM (inactive); with IGROV-1, 94.8 µM (inactive); with K562, 34.6 µM (inactive). The GI50 was > 100 µM (inactive) in the assay with LOX IMVI; 38.8 µM (inactive) in the assay with M14; 33 µM (inactive) with MOLT-4; 23 µM (inactive) in the assay with OVCAR-3; > 100 µM (inactive) in the assay with OVCAR-5; 44.6 µM (inactive) in the assay with SK-MEL-2. Besides, the GI50 in the assay with SNB-19 was 40.4 µM (inactive).
As for `CCCCCCCCCc1cc(=O)c2ccc(OCc3ccccc3)cc2o1`, the GI50 is 70.8 µM (inactive) in the assay with A549; 2.92 µM (inactive) in the assay with CAKI-1; > 100 µM (inactive) with EKVX; 71.3 µM (inactive) in the assay with HCT-116; > 100 µM (inactive) in the assay on HT-29; > 100 µM (inactive) in the assay with IGROV-1. In addition, the GI50 in the assay on K562 was > 100 µM (inactive); in the assay on LOX IMVI it was > 100 µM (inactive); in the assay on M14, > 100 µM (inactive); with NCI-H226, 34.7 µM (inactive); with OVCAR-3, > 100 µM (inactive); with OVCAR-5, > 100 µM (inactive). Also, the GI50 is 43.1 µM (inactive) in the assay with SK-MEL-2 and > 100 µM (inactive) in the assay on SNB-19.
Take `CC1CCCC(C(=O)/C(=C/c2cccc(Cl)c2)C(=O)C(=O)O)C1` (stereo not given): the GI50 with A549 was 60.7 µM (inactive); with CAKI-1, 33.3 µM (inactive); in the assay on EKVX, 47.1 µM (inactive); in the assay on HCT-116, 13.8 µM (inactive); in the assay with HT-29, 18.4 µM (inactive); in the assay on IGROV-1, 30.9 µM (inactive). The GI50 in the assay on K562 is 19.5 µM (inactive); with M14, 29.7 µM (inactive); with MOLT-4 it was 19 µM (inactive); in the assay on NCI-H226, > 100 µM (inactive); with OVCAR-3, 24.7 µM (inactive); in the assay with OVCAR-5, > 100 µM (inactive). Further, in the assay on SNB-19, the GI50 was 33.8 µM (inactive).
For `Cc1nc(=O)n2c(C)n[nH]c2c1C(=O)Nc1cc(Cl)cc(Cl)c1`, the GI50 with A549 was 19.2 µM (inactive); with CAKI-1, 36.9 µM (inactive); with EKVX, 31.1 µM (inactive); in the assay on HCT-116, 27.5 µM (inactive); in the assay with HT-29 it was 31.3 µM (inactive); with IGROV-1, 24.5 µM (inactive). Besides, the GI50 is 23.8 µM (inactive) in the assay with K562; 36.2 µM (inactive) with LOX IMVI; 35.6 µM (inactive) with M14; 26.9 µM (inactive) in the assay with MOLT-4; 24.8 µM (inactive) in the assay on NCI-H226; 14.2 µM (inactive) in the assay with OVCAR-3. Moreover, the GI50 in the assay with OVCAR-5 was 65.3 µM (inactive).
On to `NC(CCSCC(F)(F)F)C(=O)O` (stereo not given), for which the GI50 in the assay with A549, with CAKI-1, in the assay on EKVX, in the assay with HCT-116, with HT-29 and with IGROV-1 was > 100 µM (inactive) each time. Besides, the GI50 in the assay on K562, in the assay with LOX IMVI, with M14, with MOLT-4, with NCI-H226 and in the assay with OVCAR-3 was > 100 µM (inactive) each time. Also, the GI50 in the assay with OVCAR-5 and in the assay with SNB-19 was > 100 µM (inactive) throughout.
As for `O=C(CC(=O)N1N=C(n2ccc3ccccc32)CC1c1ccccc1)Nc1ccc(Cl)cc1` (stereo not given), the GI50 in the assay on A549, in the assay with EKVX, in the assay on HCT-116, with HT-29, in the assay with IGROV-1 and with K562 was > 100 µM (inactive) throughout. Further, the GI50 with LOX IMVI is > 100 µM (inactive); in the assay on M14 it was > 100 µM (inactive); with MOLT-4 it was 8.39 µM (inactive); in the assay on OVCAR-3, > 100 µM (inactive); with OVCAR-5, > 100 µM (inactive); in the assay with SK-MEL-2, > 100 µM (inactive). Moreover, the GI50 in the assay on SNB-19 was > 100 µM (inactive).
`COc1cc(C2c3cc4c(cc3[C@@H](N(C)C)[C@H]3COC(=O)C23)OCO4)cc(OC)c1O` (stereo not given in full): the GI50 in the assay on A549 is 45.9 µM (inactive); in the assay on CAKI-1, 23.7 µM (inactive); in the assay with EKVX it was 64.4 µM (inactive); in the assay on HCT-116, 38 µM (inactive); in the assay with HT-29, 34.4 µM (inactive); in the assay with IGROV-1 it was 72.1 µM (inactive). Moreover, the GI50 in the assay with K562 is 27.3 µM (inactive); in the assay on LOX IMVI, 33.3 µM (inactive); with M14, 31 µM (inactive); with MOLT-4, 38.2 µM (inactive); in the assay on NCI-H226 it was > 100 µM (inactive); with OVCAR-5 it was > 100 µM (inactive). The GI50 in the assay with SK-MEL-2 was 33.4 µM (inactive).
For `CC1CCC23COC(=O)C2C(O)CCC3C1(C)CC(O)c1ccoc1` (stereo not given), the GI50 in the assay with A549, in the assay on EKVX, with HCT-116, with HT-29, in the assay on IGROV-1 and in the assay on K562 was > 100 µM (inactive) each time. Besides, the GI50 in the assay on LOX IMVI, in the assay with M14, in the assay with MOLT-4, with NCI-H226, with OVCAR-3 and in the assay with OVCAR-5 was > 100 µM (inactive) in each case. Moreover, the GI50 with SK-MEL-2 and in the assay on SNB-19 was > 100 µM (inactive) in each case.
`C[C@]12CCCC(=O)C1(O)C[C@H](C(=O)O)CC2` (stereo not given in full): the GI50 in the assay with A549, in the assay with CAKI-1, in the assay on HCT-116, in the assay with HT-29, with IGROV-1 and in the assay with K562 was > 100 µM (inactive) each time. Further, the GI50 with LOX IMVI, with M14, in the assay with MOLT-4, in the assay with NCI-H226, in the assay on OVCAR-3 and in the assay with OVCAR-5 was > 100 µM (inactive) each time. Besides, the GI50 in the assay on SK-MEL-2 and with SNB-19 was > 100 µM (inactive) in each case.
As for `COc1cccc2c1C(=O)c1c(O)c3c(c(O)c1C2=O)C[C@@](O)(C(=O)CO)CC3OC1CC(N(C)CCOCC(OC(C)=O)OC(C)=O)C(O)C(C)O1` (stereo not given in full), the GI50 in the assay with A549, with CAKI-1, in the assay with EKVX, in the assay with HT-29, in the assay on IGROV-1 and in the assay on K562 was > 0.01 µM (active) each time. In addition, the GI50 with LOX IMVI, in the assay with M14, with MOLT-4, in the assay on NCI-H226, in the assay on OVCAR-3 and in the assay with OVCAR-5 was > 0.01 µM (active) throughout. The GI50 in the assay on SK-MEL-2 and in the assay on SNB-19 was > 0.01 µM (active) each time.
For the compound `COc1cc(C2Oc3cc(-c4oc5cc(O)cc(O)c5c(=O)c4O)ccc3OC2CO)ccc1O` (stereo not given) [DEHYDROSILYLBIN], the GI50 with A549 was 9.14 µM (inactive); with CAKI-1, 14 µM (inactive); with HCT-116 it was 4.71 µM (inactive); in the assay on HT-29 it was 25.9 µM (inactive); in the assay on IGROV-1, 10.9 µM (inactive); in the assay on K562, 11 µM (inactive). Moreover, the GI50 is 12.4 µM (inactive) in the assay on M14; 3.9 µM (inactive) in the assay with MOLT-4; 8.51 µM (inactive) in the assay on NCI-H226; 21.5 µM (inactive) in the assay on OVCAR-3; 7.38 µM (inactive) in the assay with SK-MEL-2; 7.43 µM (inactive) in the assay with SNB-19.

The values above are taken from ChEMBL document CHEMBL1201862, “PubChem BioAssay data set” (2004).
